Converted amounts (≈) assume the structure as drawn. Read-outs that look alike come from different tables or passages of the source. Non-standard residues stand in square brackets, D forms with d. Residues, ends and D or L forms follow the SMILES beside them. *: point of attachment. Lauroyl = CCCCCCCCCCCC(=O)*
Key:
Jurkat cells = type: cell-based; conditions: 16 h
Procedure: Toxicity of peptide compositions for mammalian cells was determined by using a metabolic viability assay. For this assay 4×10^5 HeLa cells were seeded per well into a microwell plate (50 microliters volume). Jurkat cells also were utilized in separate experiments. The cells were incubated for 16 hours at 37° C. under mammalian cell culture conditions. Two fold serial dilutions for each peptide were prepared and added to the cells (final volume 100 microliters) and incubated for 16 hours at 37° C. For each dilution series control wells containing cells without peptide were included. The metabolic activity and viability of the cells were determined by using a commercially available assay (CellTiter96 assay, Promega Corp.). According to manufacturer's protocol 20 microliters of CellTiter reagent was added to each well and incubated at 37° C. for 1-4 hours. The CellTiter assay is a commercial version of the MTT assay, which measures the conversion of a tetrazolium […] into a colored formazan salt in metabolically active cells. The formation of the formazan product can be measured at 470 nm and is generally accepted as a measure of cellular viability. The cells were incubated at 37° C. and monitored for color development. The conversion of CellTiter reagent was measured at 470 nm using a Versamax plate reader (Molecular Devices). The viability of peptide treated cells is expressed as IC50 (i.e., concentration that leads to a 50% reduction of viability relative to the untreated control). Table 7A reports IC50 values for HeLa cells cultured in OptiMEM or 10% FBS when contacted with peptide compositions from Table 3, and Table 7B reports IC50 values for HeLa cells or Jurkat cells contacted with peptide compositions from Table 3.

HeLa cells = conditions: 16 h
[1] = tested on: Propionibacterium acnes ATCC 6919; type: cell-based
In short: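 MIC by non-standard broth microdilution in reinforced Clostridial broth, log-phase P. acnes inoculum at 5×10^5 to 1×10^6 CFU/mL. Plates were held anaerobically 48–72 h at 37° C; MIC was the lowest peptide concentration with no visible turbidity relative to the no-peptide control.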

[2] = tested on: Staphylococcus aureus ATCC 29213; test: MIC, NCCLS M7-A6 broth microdilution, cation-adjusted Mueller Hinton broth (Table 9, no superscript); type: cell-based; conditions: ATCC 29213
In short: (§1)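 Broth microdilution in cation-adjusted Mueller Hinton broth, log-phase inoculum giving 5×10^5 to 1×10^6 CFU/milliliter per well. Overnight incubation at 37° C. MIC taken as lowest peptide concentration with no visible turbidity versus a no-peptide control.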

[3] = tested on: Escherichia coli ATCC 25922; test: MIC, NCCLS M7-A6 broth microdilution (Table 9, no superscript); type: cell-based; conditions: ATCC 25922
In short: as §1

[4] = tested on: Staphylococcus epidermidis ATCC 12228; test: as above; type: cell-based; conditions: ATCC 12228
In short: as §1

Salmonella dublin (Lane) = test: as above; type: cell-based
In short: as §1

[5] = tested on: Pseudomonas aeruginosa ATCC 27853; test: as above; type: cell-based; conditions: ATCC 27853
In short: as §1

[6] = tested on: Candida albicans ATCC 18804; test: MIC in yeasts, NCCLS M27-A2 broth microdilution, RPMI 1640 (Table 9, letter e); type: cell-based; conditions: ATCC 18804
In short: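 Broth microdilution per NCCLS M27-A2 in RPMI 1640 with glutamine and phenol red, final inoculum 0.5×10^3–2.5×10^3 CFU/milliliter. Incubated 24 to 48 hours at 37° C; MIC is the lowest peptide concentration with no visible growth.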

[7] = tested on: Propionibacterium acnes ATCC 6919; test: MIC, agar dilution method NCCLS M11-A6, Brucella agar, anaerobic (Table 9, superscript c); type: cell-based; conditions: letter c: agar dilution NCCLS M11-A6, Brucella agar, anaerobic
In short: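 Agar dilution per NCCLS M11-A6 on Brucella agar; final inoculum 1.5×10^8 CFU/milliliter applied to plates, incubated 48-96 hours at 37° C. under anaerobic (GasPak) conditions. MIC = lowest peptide concentration with no colony growth.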

[8] = tested on: Pseudomonas aeruginosa ATCC 27853; conditions: ATCC 27853, pH 7.4
IL-12 release = test: Anti-inflammation assay: IL-12 release in PBMCs stimulated by P. acnes (IL-12p70 ELISA); type: cell-based, human; conditions: PBMCs stimulated by P. acnes, over night; read-out: IC50 value, reduction of IL-12 release
Procedure: An assay that detected reductions in IL-12 released in whole human blood cells (PBMCs) was utilized to detect reductions in inflammation elicited by peptide compositions described herein. The assay utilized the following materials and reagents: whole human blood cells; P. acnes; peptides 55, 67 and 93 from Table 3; IL-12p70 ELISA kit (eBiosciences); RPMI 1640 growth medium; PBS; and a 96-well microtiter plate. PBMCs were prepared from whole human blood cells according to standard procedures and cells were resuspended in RPMI 1640 and 10% FCS. Cells were seeded at 250,000 cells per well in a 96-well microtiter plate and incubated for 90 minutes. […] Controls included untreated cells, P. acnes alone or a peptide alone. The cells were incubated over night at 37° C., and cell supernatants were collected and stored at −80° C. for use in an IL-12 ELISA assay (eBiosciences). A 1:1 dilution of supernatant was utilized to perform the IL-12 ELISA following the protocol provided by the manufacturer.

| Structure (SMILES) | IC50 (Jurkat cells) [µM] | IC50 (HeLa cells) [µM] | MIC P. acnes [1] [µg·days/mL] | MIC S. aureus [2] [µg/mL] | MIC E. coli [3] [µg/mL] | MIC S. epidermidis [4] [µg/mL] | MIC S. dublin (Salmonella dublin (Lane)) [µg/mL] | MIC P. aeruginosa [5] [µg/mL] | MIC C. albicans [6] [e ug/mL] | MIC P. acnes [7] [c ug/mL] | MIC P. aeruginosa [8] [b ug/mL] | IC50 (IL-12 release) [nM] |
| --- | --- | --- | --- | --- | --- | --- | --- | --- | --- | --- | --- | --- |
| CSCC[C@@H](NC(=O)[C@@H](Cc1ccccc1)NC(=O)[C@@H](CC(N)=O)NC(=O)[C@@H](CCCNC(=N)N)NC(=O)[C@@H](CO)NC(=O)[C@@H](Cc1c[nH]c2ccccc12)NC(=O)[C@@H](CC(=O)O)NC(=O)[C@@H](CCCNC(=N)N)NC(=O)[C@@H](Cc1c[nH]c2ccccc12)NC(=O)[C@@H](CCCNC(=N)N)NC(=O)[C@@H](CO)NC(=O)[C@@H](CCCNC(=N)N)NC(=O)CNC(=O)[C@H](NC(=O)[C@@H](CCCNC(=N)N)NC(=O)[C@@H](CO)NC(=O)[C@H](NC(=O)[C@@H](CCCNC(=N)N)NC(=O)[C@H](NC(C)=O)[C@H](C)O)C(C)C)[C@H](C)O)C(=O)N[C@H](CCCNC(=N)N)C(N)=O [Peptide 33, Ac-trvsrtgrsrwrdwsrnfmr-NH2] (Ac-[dT][dR][dV][dS][dR][dT]G[dR][dS][dR][dW][dR][dD][dW][dS][dR][dN][dF][dM][dR]-NH2) | 67.5 | > 100 | 12.5 | >64 | >64 | 32 (≈ 12.1 µM) | 64 (≈ 24.1 µM) | >64 | 16 |  |  |  |
| CCCCCCCCCCCC(=O)N[C@H](CCCNC(=N)N)C(=O)N[C@H](CO)C(=O)N[C@H](CCCNC(=N)N)C(=O)N[C@H](Cc1c[nH]c2ccccc12)C(=O)N[C@H](CCCNC(=N)N)C(=O)N[C@H](CC(=O)O)C(=O)N[C@@H](C(=O)N[C@H](C)C(=O)N[C@H](CCCNC(=N)N)C(=O)N[C@H](CC(N)=O)C(=O)N[C@H](Cc1ccccc1)C(=O)N[C@H](CCSC)C(=O)N[C@H](CCCNC(=N)N)C(N)=O)C(C)C [Peptide 90, Lauryl-rsrwrdvarnfmr-NH2] (Lauroyl-[dR][dS][dR][dW][dR][dD][dV][dA][dR][dN][dF][dM][dR]-NH2) | 5 to 15 | 5 to 15 |  | 4 (≈ 2.07 µM) | 4 (≈ 2.07 µM) | 4 (≈ 2.07 µM) | 4 (≈ 2.07 µM) |  | 16 | 8 | 3 |  |
| CCCCCCCCCCCC(=O)N[C@@H](C(=O)N[C@H](CCCNC(=N)N)C(=O)N[C@@H](C(=O)N[C@H](CO)C(=O)N[C@H](CCCNC(=N)N)C(=O)N[C@@H](C(=O)NCC(=O)N[C@H](CCCNC(=N)N)C(=O)N[C@H](CO)C(=O)N[C@H](CCCNC(=N)N)C(=O)N[C@H](Cc1c[nH]c2ccccc12)C(=O)N[C@H](CCCNC(=N)N)C(=O)N[C@H](CC(=O)O)C(=O)N[C@H](Cc1c[nH]c2ccccc12)C(=O)N[C@H](CO)C(=O)N[C@H](CCCNC(=N)N)C(=O)N[C@H](CC(N)=O)C(=O)N[C@H](Cc1ccccc1)C(=O)N[C@H](CCSC)C(=O)N[C@H](CCCNC(=N)N)C(N)=O)[C@H](C)O)C(C)C)[C@H](C)O [Peptide 76, Lauryl-trvsrtgrsrwrdwsrnfmr-NH2] (Lauroyl-[dT][dR][dV][dS][dR][dT]G[dR][dS][dR][dW][dR][dD][dW][dS][dR][dN][dF][dM][dR]-NH2) | 3.3 | 5.49 |  | 2 (≈ 0.716 µM) | 4 (≈ 1.43 µM) | 1 (≈ 0.358 µM) | 16 (≈ 5.73 µM) | 32 (≈ 11.5 µM) | 16 | 64 |  | 1120 |

From patent publication US20050282755A1, “Compositions having antimicrobial activity and uses thereof” (priority 2004, published 2005)
